Values quoted from earlier work as cited in patent publication US20020102214A1, “Paramagnetic material-containing magnetic resonance external marker or calibration composition” (NYCOMED IMAGING AS., priority 1996, published 2002).

Conditions: at MRI fields, between 20° C. to 35° C., based on relaxivity data

SMILES: O=C([O-])CN(CCN(CC(=O)[O-])CC(=O)O)CCN(CC(=O)[O-])CC(=O)O.[Gd+3] [GdDTPA]
- variation of signal intensity with temperature: about 20%
